According to patent US7723068B2, “Gene cluster involved in safracin biosynthesis and its uses for genetic engineering” (PharmaMar, S.A., priority 2002, dated 2010):

Tests used:
LOVO [1] = test: cells; conditions: Homo sapiens; for GI50: read-out: GI50 LOVO; for CC50: read-out: LC50 LOVO
DU-145 [2] = test: cells; conditions: Homo sapiens; for GI50: DU-145, read-out: GI50 DU-145; for CC50: DU-145, read-out: LC50 DU-145
IGROV-ET [3] = conditions: Ovary
LN-caP [4] = test: cells; conditions: Homo sapiens, LNCaP; for GI50: read-out: GI50 LN-caP; for CC50: read-out: LC50 LN-caP
PANC1 [5] = conditions: Pancreas
LOVO [6] = conditions: Colon
LN-caP [7] = conditions: Prostate
Apoptosis (NUCLEOSOMES) = test: Secondary Screening, Apoptosis NUCLEOSOMES; type: cell-based; conditions: Secondary Evaluation
IGROV [8] = test: cells; conditions: for GI50: read-out: GI50 IGROV; for CC50: read-out: LC50 IGROV
HELA-APL [9] = conditions: Cervix
A549 [10] = conditions: NSCL
DU-145 [11] = conditions: Prostate
LOVO-DOX [12] = test: cells; conditions: for GI50: read-out: GI50 LOVO-DOX; for CC50: read-out: LC50 LOVO-DOX
SK-MEL-28 [13] = test: cells; conditions: Homo sapiens; for GI50: SK-MEL-28, read-out: GI50 SK-MEL-28; for CC50: SK-MEL-28, read-out: LC50 SK-MEL-28
DNA = test: Secondary Screening, DNA Binding GEL; conditions: Secondary Evaluation
[14] = Antibacterial and antitumoral activities, general statements; conditions: compared with safracin A / safracin B
A549 [15] = test: cells; conditions: Homo sapiens; for GI50: A549, read-out: GI50 A549; for CC50: A549, read-out: LC50 A549
K-562 [16] = conditions: Leukemia
SK-BR3 [17] = conditions: Breast
HT29 [18] = test: cells; conditions: Homo sapiens; for GI50: HT-29, read-out: GI50 HT29; for CC50: HT-29, read-out: LC50 HT29
Bacillus subtilis = test: Antimicrobial activity on solid medium, disk; type: cell-based; conditions: Bacillus subtilis, 10 μg/disk (6 mm diameter)
Procedure: Antimicrobial activity: On solid medium Bacillus subtilis. 10 μg/disk (6 mm diameter): 10 mm inhibition zone Spectroscopic Data: […]

K-562 [19] = test: cells; conditions: Homo sapiens; for GI50: K562, read-out: GI50 K-562; for CC50: K562, read-out: LC50 K-562
RNA synthesis = test: Secondary Screening, Macromolecules Synthesis RNA; type: cell-based; conditions: Secondary Evaluation
DNA synthesis = test: Secondary Screening, Macromolecules Synthesis DNA; type: cell-based; conditions: Secondary Evaluation
HELA [20] = test: cells; conditions: Homo sapiens; for GI50: read-out: GI50 HELA; for CC50: read-out: LC50 HELA
IGROV-ET [21] = test: cells; conditions: for GI50: read-out: GI50 IGROV-ET; for CC50: read-out: LC50 IGROV-ET
PROTEIN synthesis = test: Secondary Screening, Macromolecules Synthesis PROTEIN; type: cell-based; conditions: Secondary Evaluation
HT29 [22] = conditions: Colon
SK-BR3 [23] = test: cells; conditions: Homo sapiens; for GI50: SK-BR-3, read-out: GI50 SK-BR3; for CC50: SK-BR-3, read-out: LC50 SK-BR3
LOVO-DOX [24] = conditions: Colon
IGROV [25] = conditions: Ovary
HELA [26] = conditions: Cervix
HELA-APL [27] = test: cells; conditions: for GI50: read-out: GI50 HELA-APL; for CC50: read-out: LC50 HELA-APL
SK-MEL-28 [28] = conditions: Melanoma
PANC1 [29] = test: cells; conditions: Homo sapiens; for GI50: PANC-1, read-out: GI50 PANC1; for CC50: PANC-1, read-out: LC50 PANC1

Compound: CCOC1=C(C)C(=O)C2=C(C1=O)C(CNC(=O)C(C)N)N1C(O)C3Cc4cc(C)c(OCC)c(O)c4C(C1C2)N3C (centres unmarked) [Safracin B (OEt)]
- GI50 (LOVO [1]): 0.443 µM
- CC50 (LOVO [1]): > 17.6 µM
- GI50 (DU-145 [2]): 0.401 µM
- CC50 (DU-145 [2]): 16 µM
- TGI IGROV-ET (IGROV-ET [3]): 1.19 µM
- GI50 (LN-caP [4]): 0.0484 µM
- CC50 (LN-caP [4]): 0.828 µM
- TGI PANC1 (PANC1 [5]): 2.06 µM
- TGI LOVO (LOVO [6]): 1.09 µM
- TGI LN-caP (LN-caP [7]): >17.6 µM
- IC50 (Apoptosis (NUCLEOSOMES)): 0.0528 µM
- GI50 (IGROV [8]): 0.0406 µM
- CC50 (IGROV [8]): 4.27 µM
- TGI HELA-APL (HELA-APL [9]): 0.274 µM
- TGI A549 (A549 [10]): 1.16 µM
- TGI DU-145 (DU-145 [11]): 1.01 µM
- GI50 (LOVO-DOX [12]): 2.09 µM
- CC50 (LOVO-DOX [12]): > 17.6 µM
- GI50 (SK-MEL-28 [13]): 0.169 µM
- CC50 (SK-MEL-28 [13]): 1.13 µM
- IC50 (DNA): 17.6 µM
- antibacterial and antitumoral activities (in words) [14]: as potent as the activities of safracin A and safracin B, respectively
- GI50 (A549 [15]): 0.501 µM
- CC50 (A549 [15]): 5.66 µM
- TGI K-562 (K-562 [16]): 0.108 µM
- TGI SK-BR3 (SK-BR3 [17]): 0.116 µM
- GI50 (HT29 [18]): 0.244 µM
- CC50 (HT29 [18]): > 17.6 µM
- zone of inhibition at 10 µg/disc (Bacillus subtilis): 17.5 mm
- GI50 (K-562 [19]): 0.0397 µM
- CC50 (K-562 [19]): 3.69 µM
- IC50 (RNA synthesis): 0.176 µM
- IC50 (DNA synthesis): 1.76 µM
- GI50 (HELA [20]): 0.0892 µM
- CC50 (HELA [20]): 1.35 µM
- GI50 (IGROV-ET [21]): 0.682 µM
- CC50 (IGROV-ET [21]): 6.37 µM
- IC50 (PROTEIN synthesis): > 17.6 µM
- TGI HT29 (HT29 [22]): 1.39 µM
- GI50 (SK-BR3 [23]): 0.0482 µM
- CC50 (SK-BR3 [23]): 1.02 µM
- TGI LOVO-DOX (LOVO-DOX [24]): 9.88 µM
- TGI IGROV (IGROV [25]): 0.0997 µM
- TGI HELA (HELA [26]): 0.315 µM
- GI50 (HELA-APL [27]): 0.077 µM
- CC50 (HELA-APL [27]): 0.976 µM
- TGI SK-MEL-28 (SK-MEL-28 [28]): 0.44 µM
- GI50 (PANC1 [29]): 0.649 µM
- CC50 (PANC1 [29]): 13.5 µM

Compound: COC1=C(C)C(=O)C2=C(C1=O)C(CNC(=O)C(C)N)N1C(O)C3Cc4cc(C)c(OC)c(O)c4C(N3)C1C2 (centres unmarked) [Safracin D]
- GI50 (LOVO [1]): 6.99 µM
- CC50 (LOVO [1]): > 19 µM
- GI50 (DU-145 [2]): 5.22 µM
- CC50 (DU-145 [2]): 19 µM
- TGI IGROV-ET (IGROV-ET [3]): 3.34 µM
- GI50 (LN-caP [4]): 1.54 µM
- CC50 (LN-caP [4]): 9.78 µM
- TGI PANC1 (PANC1 [5]): 11 µM
- TGI LOVO (LOVO [6]): 18.2 µM
- TGI LN-caP (LN-caP [7]): 4.12 µM
- IC50 (Apoptosis (NUCLEOSOMES)): 2.85 µM
- GI50 (IGROV [8]): 2.68 µM
- CC50 (IGROV [8]): 13.5 µM
- TGI HELA-APL (HELA-APL [9]): 5.24 µM
- TGI A549 (A549 [10]): 10.7 µM
- TGI DU-145 (DU-145 [11]): 9.99 µM
- GI50 (LOVO-DOX [12]): 4.75 µM
- CC50 (LOVO-DOX [12]): 16.5 µM
- GI50 (SK-MEL-28 [13]): 3.51 µM
- CC50 (SK-MEL-28 [13]): 11 µM
- IC50 (DNA): 6.65 µM
- antibacterial and antitumoral activities (in words) [14]: the same antibacterial and antitumoral activities as safracin B and safracin A, respectively
- GI50 (A549 [15]): 6.04 µM
- CC50 (A549 [15]): 18.8 µM
- TGI K-562 (K-562 [16]): 1.16 µM
- TGI SK-BR3 (SK-BR3 [17]): 7.82 µM
- GI50 (HT29 [18]): 4.33 µM
- CC50 (HT29 [18]): > 19 µM
- zone of inhibition at 10 µg/disc (Bacillus subtilis): 15 mm
- GI50 (K-562 [19]): 0.604 µM
- CC50 (K-562 [19]): 3.78 µM
- IC50 (RNA synthesis): 3.8 µM
- IC50 (DNA synthesis): 15.2 µM
- GI50 (HELA [20]): 3.76 µM
- CC50 (HELA [20]): 11.9 µM
- GI50 (IGROV-ET [21]): 1.33 µM
- CC50 (IGROV-ET [21]): 9.15 µM
- IC50 (PROTEIN synthesis): 19 µM
- TGI HT29 (HT29 [22]): 17.9 µM
- GI50 (SK-BR3 [23]): 4.71 µM
- CC50 (SK-BR3 [23]): 13 µM
- TGI LOVO-DOX (LOVO-DOX [24]): 8.85 µM
- TGI IGROV (IGROV [25]): 6.02 µM
- TGI HELA (HELA [26]): 6.68 µM
- GI50 (HELA-APL [27]): 2.28 µM
- CC50 (HELA-APL [27]): 12.1 µM
- TGI SK-MEL-28 (SK-MEL-28 [28]): 6.21 µM
- GI50 (PANC1 [29]): 4.77 µM
- CC50 (PANC1 [29]): > 19 µM
